# Patent US7250158B1, “Skin lightening agents, compositions and methods” (Conopco, Inc., priority 2006, dated 2007)
# Test system: Melanoderm cultures
# Test: Solvable melanin assay on Melanoderm cultures (3-D skin model)
# Assay type: cell-based
# Settings: for OD = 490 nm (melanin content): Melanoderm cultures fed every other day for 2 weeks, Untreated control 1.259, ETOH control 1.035
# Description: This experiment was carried out using a Melanoderm cultures. […] was measured using a chromameter to assay the degree of melanization of a 3-D skin model. Melanoderm cultures were obtained from MatTek Corporation, Ashland, Mass. The Melanoderm was maintained according to the manufacturer's instructions. The basal media used for the maintenance of the Melanoderm cultures was DMEM supplemented with unspecified quantities of Epidermal growth factor, Insulin, Hydrocortisone, and proprietary epidermal differentiation compounds, in addition to anti-fungal and antibiotics. For the long term maintenance of the Melanoderms, the basal media was supplemented with both bFGF and a-MSH, compounds which are stimulators of melanocyte growth and melanogenesis. The cultures were fed every other day for a total of 2 weeks—fresh active preparations, prepared in DMSO or culture media, were also applied to the Melanoderms when feeding was performed. Each treatment condition was done in duplicate and digital photographs were taken of the Melanoderm cultures to assess overall pigmentation. As well, microscopic images of the Melanoderms were done to assess the cell viability of the keratinocytes and melanocytes. For further evidence that the treatments were/not cytotoxic, an LDH assay (Promega, Madison, Wis.) was performed on the supernatants from 24 hour post-treatment cultures. After treatment, tissues are usually frozen until completion of the experiment. Thaw tissues, a few at a time and place in D-PBS to remove excess phenol red from the culture medium and residual test article. Remove a single tissue from the insert. Blot dry and place in 1.7 ml. microfuge tube. Repeat for all samples. Add 250 ul Solvable™ (Tissue and Gel Solubilizer 0.5 M—Packard BioScience Co. Catalogue No. 6NE9100 (NEF910)). Close the tube and make sure that the tissue is completely submerged. Incubate at 60° C. overnight along with standards. In the morning, vortex the samples. Sometimes thick tissues will require additional time to complete the solution process. To Prepare Standard: Dissolve Melanin (Sigma cat. M 8631) in Solvable at 1 mg/ml. The solution may be warmed gently for 15 minutes at 37° C. Store solution in dark. To Prepare Standard Curve: Prepare dilutions from the standard containing 0 ug to 250 ug of melanin in a total of 250 ul Solvable. Incubate dilutions along with samples. To Read Assay: Cool samples and standards. Centrifuge at 13,000 rpm for 5 minutes to pellet. Fill microwell plate (C-96) with 200 ul each of samples and standards. There is some foaming of samples when pipetted. Blow gently across the samples to break bubbles prior to reading the plate. Read plate at […].
structure (smiles),measurement,setting,value
O=C(O)C(=O)Cc1ccc(O)cc1 [4-hydroxyphenylpyruvate],OD = 490 nm (melanin content),5 uM,1.236
same,OD = 490 nm (melanin content),50 uM,0.687
same,OD = 490 nm (melanin content),500 uM,0.565
same,OD = 490 nm (melanin content),1000 uM,0.453
same,effect on melanin synthesis,"conclusion from Table 5, Melanoderm cultures",reduce melanin synthesis
